Several values for one entry are separate records, joined by “and”; a condition that tells them apart may be missing. Equal values may be shown once.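 Each compound was tested at five concentrations against cells in 96-well plates for 48 hours. GI50 marks 50% less growth. The concentration for full growth arrest is given as TGI.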
What was measured:
Experiment in all cases: NCI tumour cell line growth inhibition, 48 h
DMS 114 small cell lung = test system: DMS 114 small cell lung
RXF-631 renal = test system: RXF-631 renal
XF 498 CNS = test system: XF 498 CNS
HOP-18 NSCLC = test system: HOP-18 NSCLC
BT-549 breast = test system: BT-549 breast
HS 578T breast = test system: HS 578T breast
MDA-MB-435 = test system: MDA-MB-435
MDA-N = test system: MDA-N
P388/ADR leukemia = test system: P388/ADR leukemia
PC-3 prostate = test system: PC-3 prostate

| SMILES | TGI (DMS 114 small cell lung) | TGI (RXF-631 renal) | TGI (XF 498 CNS) | TGI (HOP-18 NSCLC) | also measured |
| --- | --- | --- | --- | --- | --- |
| COc1ccc(/C=C\c2cc(OC)c(O[Si](C)(C)C(C)(C)C)c(OC)c2)cc1 | 91.4 µM | > 100 µM | 49.5 µM | – | – |
| Cc1ccccc1C1=C(C(=O)Nc2ccc(Cl)c(Cl)c2)NC(=S)NC1N (stereo not given) | > 100 µM | > 100 µM | > 100 µM | > 100 µM | – |
| Cc1ccc(-c2cc(-c3ccccc3)c(C#N)c(=O)n2C2OC(CO)C(O)C(O)C2O)cc1 (stereo not given) | > 100 µM | > 100 µM | – | > 100 µM | – |
| COC(=O)C(=O)C(C(=O)C(=O)Nc1cccc(C(C)=O)c1)c1nc2ccccc2[nH]c1=O (stereo not given) | > 100 µM | > 100 µM | – | > 100 µM | – |
| CC(=O)NC(CCCCNC(=O)NCCCl)C(=O)NCc1ccccc1 (stereo not given) | > 100 µM | > 100 µM | > 100 µM | > 100 µM | – |
| C/C(CCc1ccccc1)=N\NC(N)=S | > 100 µM | > 100 µM | > 100 µM | > 100 µM | – |
| N#CCCN(CCC#N)c1ccc(C(Sc2ccccc2)C(NC(=O)c2cc([N+](=O)[O-])ccc2Cl)C(=O)Sc2ccccc2)cc1 (stereo not given) | 7.78 µM and 4.1 µM | 4.01 µM | 21.3 µM | 47.3 µM | GI50 (DMS 114 small cell lung): 1.34 µM; GI50 (RXF-631 renal): 1.53 µM |
| CC[C@]1(O)C(=O)OCc2c1cc1n(c2=O)Cc2cc3c(N)cccc3nc2-1 | > 100 µM | > 100 µM | > 100 µM | > 100 µM | – |
| Cc1cccc(-n2c(=S)[nH]c3c(sc(=O)n3-c3ccccc3C)c2=O)c1 | > 100 µM | > 100 µM | – | > 100 µM | – |
| O=C(c1ccncc1)n1nc(-c2ccccc2)c(N=Nc2ccccc2[N+](=O)[O-])c1-c1ccccc1 | > 100 µM | > 100 µM | > 100 µM | – | – |
| CCCCN(CCCC)c1c([N+](=O)[O-])c(=O)nc2ccccn12 | 49.6 µM | 79.8 µM | 79.6 µM | – | – |
| C/C=C1\NC(=O)[C@H]2CSSCCC=C[C@H](CC(=O)N[C@H](C(C)C)C(=O)N2)OC(=O)[C@H](C(C)C)NC1=O | 0.00885 µM | – | 0.0155 µM and 0.0624 µM | 0.054 µM and 0.0719 µM | GI50 (BT-549 breast): < 10 nM and 0.0646 nM and < 11.1 nM; GI50 (HS 578T breast): < 0.01 µM; TGI (HS 578T breast): 0.0439 µM; GI50 (MDA-MB-435): < 0.01 µM; TGI (MDA-MB-435): < 0.0134 µM and 0.0207 µM and 0.125 µM; TGI (MDA-N): 0.0176 µM and < 0.0319 µM; TGI (P388/ADR leukemia): 0.125 µM; GI50 (PC-3 prostate): < 0.01 µM |
| CN(C)/N=C(/c1nc2ccc(Cl)cc2[nH]c1=O)C(O)c1ccc(C(O)/C(=N\N(C)C)c2nc3ccc(Cl)cc3[nH]c2=O)cc1 (stereo not given) | > 100 µM | > 100 µM | – | – | – |
| CC1=C(C(=O)Nc2cccc(Cl)c2)C(c2ccccc2F)C(C(=O)Nc2cccc(Cl)c2)=C(C)N1 | 30.6 µM | 22.6 µM | – | – | – |
| C/C=C/C=C/C=C/C=C/C(=O)O | > 100 µM | > 100 µM | – | > 100 µM | – |
| OC1(c2ccccc2)OC(C#Cc2ccccc2)(c2ccccc2)c2ccccc21 (stereo not given) | 9.01 µM | 13.3 µM | 19.8 µM | – | – |
| CN1CC[C@]2(C)c3ccc(O)cc3CC3CCCC1C32C (stereo not given in full) | > 100 µM | > 100 µM | > 100 µM | > 100 µM | – |
| CS(=O)(=O)CSCSSCS(C)(=O)=O | > 92.1 µM | > 100 µM | 75.6 µM | > 100 µM | – |
| C[C@]12CCCC(=O)C1(O)C[C@H](C(=O)O)CC2 (stereo not given in full) | > 100 µM | > 100 µM | > 100 µM | > 100 µM | – |
| COC1OC(CO)C(O)C1N (stereo not given) | > 100 µM | > 100 µM | – | > 100 µM | – |
| COC(=O)c1ccccc1NC(=O)C(=O)NNC(=O)c1ccncc1 | > 100 µM | > 100 µM | > 100 µM | > 100 µM | – |
| COC1C2C=CC(C2)[C@H]1[N+](=O)[O-] (stereo not given in full) | > 100 µM | > 100 µM | – | – | – |
| Cc1ccc(-c2cc(-c3ccco3)c(C#N)c(=O)n2C2OC(OC(=O)c3ccccc3)C(OC(=O)c3ccccc3)C2OC(=O)c2ccccc2)cc1 (stereo not given) | > 100 µM | > 100 µM | – | > 100 µM | – |

— PubChem BioAssay (NCI)
